Data from patent US20210308108A1, “ACTIVATING PYRUVATE KINASE R” (FORMA Therapeutics, Inc., priority 2018, published 2021).

How the values were obtained:
Assay type in all cases: biochemical
wt-PKR [1] = molecular target: T1, wt-PKR (Homo sapiens, UniProt P30613); assay: Enzyme assay, activation at different compound concentrations (rate of ATP formation); settings: PEP concentrations at or below Km
PKR-R510Q [2] = molecular target: T2, PKR-R510Q (Homo sapiens, UniProt P30613, R510Q); assay: as above; settings: PEP concentrations at or below Km
wt-PKR [3] = molecular target: T1, wt-PKR; assay: Enzyme assay, kinetic parameters (Vmax, PEP Km)
Method: (§1) Tests were conducted in the presence and absence of fructose-1,6-bisphosphate (FBP), a known allosteric activator of PKR.

PKR-R510Q [4] = molecular target: T2, PKR-R510Q; assay: Enzyme assay, kinetic parameters (Vmax, PEP Km)
Method: as §1

[5] = 2 μM Compound 1, in the presence or absence of FBP
[6] = 2 μM Compound 1, presence and absence of FBP

T2 sequence (P30613 whole entry R510Q): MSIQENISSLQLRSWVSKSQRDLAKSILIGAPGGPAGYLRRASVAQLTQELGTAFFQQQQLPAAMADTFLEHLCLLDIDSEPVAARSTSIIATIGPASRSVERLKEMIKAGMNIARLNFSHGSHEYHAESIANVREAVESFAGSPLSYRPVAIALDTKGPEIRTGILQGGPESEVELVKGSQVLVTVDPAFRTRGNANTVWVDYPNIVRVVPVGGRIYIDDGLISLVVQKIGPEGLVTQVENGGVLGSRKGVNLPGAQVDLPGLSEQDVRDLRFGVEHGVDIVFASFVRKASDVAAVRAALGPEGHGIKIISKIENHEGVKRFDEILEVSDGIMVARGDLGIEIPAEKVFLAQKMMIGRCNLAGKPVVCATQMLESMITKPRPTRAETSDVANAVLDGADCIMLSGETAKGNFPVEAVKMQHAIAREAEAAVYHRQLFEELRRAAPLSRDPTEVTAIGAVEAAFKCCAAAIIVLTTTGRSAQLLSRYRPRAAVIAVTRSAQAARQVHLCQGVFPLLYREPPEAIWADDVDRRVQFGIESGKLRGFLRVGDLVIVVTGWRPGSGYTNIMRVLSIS
T1 sequence (P30613 whole entry): as the sequence (P30613 whole entry R510Q) above, with Q510R counted along it

Maximum-fold Activation (wt-PKR [1]): <2.0 fold
Maximum-fold Activation (PKR-R510Q [2]): <3.0 fold
reduction of PEP Km (wt-PKR [3]; [5]): ~2 fold
effect on Vmax (wt-PKR [3]; [6]): no effect to a modest increase
reduction of PEP Km (PKR-R510Q [4]; [5]): ~2 fold
effect on Vmax (PKR-R510Q [4]; [6]): no effect to a modest increase
SMILES: O=C([C@H](CO)c1ccccc1)N1CC2=C(C1)CN(S(=O)(=O)c1cnc3c(c1)OCCO3)C2 (single isomer, unassigned) [Compound 1]
